Tests used:
[1] = tested on: HCV genotype 1b (Con1) replicon in HUH-7 cells; test: HCV replicon luciferase reporter assay, genotype 1b; type: cell-based; details: Hepatitis C virus, Huh-7, 72 h, HCV genotype 1b replicon luciferase, 3 days incubation, read-out: LE_1b (EC50, range)
Summary of the method: (§1)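 Replicon inhibition for both genotypes was measured as Renilla luciferase signal (EnduRen, 7.5 μM final, 2 h) after 3-day, 37° C exposure of replicon-bearing HUH-7 cells in 4% FCS DMEM, 0.5% DMSO. The 1b construct carries S1179I; the 1a H77 construct carries P1496L and S2204I. Twenty-point, 3-fold dilutions were fitted four-parametrically for EC50, and CC50 was taken from multiplexed Cell Titer-Blue.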

[2] = tested on: HCV genotype 1a (H77 strain) replicon in HUH-7 cells; test: HCV replicon luciferase reporter assay, genotype 1a; type: cell-based; details: Hepatitis C virus, Huh-7, 72 h, HCV genotype 1a replicon luciferase, 3 days incubation, read-out: LE_1a (EC50, range)
Summary of the method: as §1

C[C@H]1CC/C=C\[C@@H]2C[C@@]2(C(=O)NS(=O)(=O)C2CC2)NC(=O)[C@@H]2C[C@@H](Oc3nccc4c5c(ccc34)OCCO5)CN2C(=O)[C@@H](NC(=O)O[C@@H]2C[C@@H]3C[C@@H]3C2)[C@H](C)C1 [Compound 5263, (1R,3r,5S)-bicyclo[3.1.0]hexan-3-yl((2R,6S,7R,9S,13aS,14aR,16aS,Z)-14a-((cyclopropylsulfonyl)carbamoyl)-2-((2,3-dihydro-[1,4]dioxino[2,3-f]isoquinolin-7-yl)oxy)-7,9-dimethyl-5,16-dioxo-1,2,3,5,6,7,8,9,10,11,13a,14,14a,15,16,16a-hexadecahydrocyclopropa[e]pyrrolo[1,2-a][1,4]diazacyclopentadecin-6-yl)carbamate]
EC50 [1]: < 5.46 nM | EC50 [2]: 4.82 to 103 nM

C[C@@H]1CC/C=C\[C@@H]2C[C@@]2(C(=O)NS(=O)(=O)C2CC2)NC(=O)[C@@H]2C[C@@H](Oc3nccc4c5c(ccc34)OCCO5)CN2C(=O)[C@@H](NC(=O)O[C@@H]2C[C@@H]3C[C@@H]3C2)[C@H](C)C1 [Compound 5264, (1R,3r,5S)-bicyclo[3.1.0]hexan-3-yl((2R,6S,7R,9R,13aS,14aR,16aS,Z)-14a-((cyclopropylsulfonyl)carbamoyl)-2-((2,3-dihydro-[1,4]dioxino[2,3-f]isoquinolin-7-yl)oxy)-7,9-dimethyl-5,16-dioxo-1,2,3,5,6,7,8,9,10,11,13a,14,14a,15,16,16a-hexadecahydrocyclopropa[e]pyrrolo[1,2-a][1,4]diazacyclopentadecin-6-yl)carbamate]
EC50 [1]: < 5.46 nM | EC50 [2]: < 5.46 nM

CCC(C)(CC)OC(=O)N[C@@H]1C(=O)N2C[C@H](Oc3nccc4c5c(ccc34)OCCO5)C[C@H]2C(=O)N[C@]2(C(=O)NS(=O)(=O)C3CC3)C[C@H]2/C=C\CC[C@H](C)C[C@H]1C [Compound 5265, 3-methylpentan-3-yl((2R,6S,7R,9S,13aS,14aR,16aS,Z)-14a-((cyclopropylsulfonyl)carbamoyl)-2-((2,3-dihydro-[1,4]dioxino[2,3-f]isoquinolin-7-yl)oxy)-7,9-dimethyl-5,16-dioxo-1,2,3,5,6,7,8,9,10,11,13a,14,14a,15,16,16a-hexadecahydrocyclopropa[e]pyrrolo[1,2-a][1,4]diazacyclopentadecin-6-yl)carbamate]
EC50 [1]: < 5.46 nM | EC50 [2]: 4.82 to 103 nM

CCC(C)(CC)OC(=O)N[C@@H]1C(=O)N2C[C@H](Oc3nccc4c5c(ccc34)OCCO5)C[C@H]2C(=O)N[C@]2(C(=O)NS(=O)(=O)C3CC3)C[C@H]2/C=C\CC[C@@H](C)C[C@H]1C [Compound 5266, 3-methylpentan-3-yl((2R,6S,7R,9R,13aS,14aR,16aS,Z)-14a-((cyclopropylsulfonyl)carbamoyl)-2-((2,3-dihydro-[1,4]dioxino[2,3-f]isoquinolin-7-yl)oxy)-7,9-dimethyl-5,16-dioxo-1,2,3,5,6,7,8,9,10,11,13a,14,14a,15,16,16a-hexadecahydrocyclopropa[e]pyrrolo[1,2-a][1,4]diazacyclopentadecin-6-yl)carbamate]
EC50 [1]: < 5.46 nM | EC50 [2]: < 5.46 nM

C[C@H]1CC/C=C\[C@@H]2C[C@@]2(C(=O)NS(=O)(=O)C2CC2)NC(=O)[C@@H]2C[C@@H](Oc3nccc4c5c(ccc34)OC(F)(F)O5)CN2C(=O)[C@@H](NC(=O)OC(C)(C)C(F)(F)F)[C@H](C)C1 [Compound 5267, 1,1,1-trifluoro-2-methylpropan-2-yl((2R,6S,7R,9S,13aS,14aR,16aS,Z)-14a-((cyclopropylsulfonyl)carbamoyl)-2-((2,2-difluoro-[1,3]dioxolo[4,5-f]isoquinolin-6-yl)oxy)-7,9-dimethyl-5,16-dioxo-1,2,3,5,6,7,8,9,10,11,13a,14,14a,15,16,16a-hexadecahydrocyclopropa[e]pyrrolo[1,2-a][1,4]diazacyclopentadecin-6-yl)carbamate]
EC50 [1]: 4.82 to 103 nM | EC50 [2]: 4.82 to 103 nM

C[C@@H]1CC/C=C\[C@@H]2C[C@@]2(C(=O)NS(=O)(=O)C2CC2)NC(=O)[C@@H]2C[C@@H](Oc3nccc4c5c(ccc34)OC(F)(F)O5)CN2C(=O)[C@@H](NC(=O)OC(C)(C)C(F)(F)F)[C@H](C)C1 [Compound 5268, 1,1,1-trifluoro-2-methylpropan-2-yl((2R,6S,7R,9R,13aS,14aR,16aS,Z)-14a-((cyclopropylsulfonyl)carbamoyl)-2-((2,2-difluoro-[1,3]dioxolo[4,5-f]isoquinolin-6-yl)oxy)-7,9-dimethyl-5,16-dioxo-1,2,3,5,6,7,8,9,10,11,13a,14,14a,15,16,16a-hexadecahydrocyclopropa[e]pyrrolo[1,2-a][1,4]diazacyclopentadecin-6-yl)carbamate]
EC50 [1]: < 5.46 nM | EC50 [2]: < 5.46 nM

C[C@H]1CC/C=C\[C@@H]2C[C@@]2(C(=O)NS(=O)(=O)C2CC2)NC(=O)[C@@H]2C[C@@H](Oc3nccc4c5c(ccc34)OC(F)(F)O5)CN2C(=O)[C@@H](NC(=O)O[C@H](C)C(F)(F)F)[C@H](C)C1 [Compound 5269, (R)-1,1,1-trifluoropropan-2-yl ((2R,6S,7R,9S,13aS,14aR,16aS,Z)-14a-((cyclopropylsulfonyl)carbamoyl)-2((2,2-difluoro-[1,3]dioxolo[4,5-f]isoquinolin-6-yl)oxy)-7,9-dimethyl-5,16-dioxo-1,2,3,5,6,7,8,9,10,11,13a,14,14a,15,16,16a-hexadecahydrocyclopropa[e]pyrrolo[1,2-a][1,4]diazacyclopentadecin-6-yl)carbamate]
EC50 [1]: 4.82 to 103 nM | EC50 [2]: 4.82 to 103 nM

C[C@@H]1CC/C=C\[C@@H]2C[C@@]2(C(=O)NS(=O)(=O)C2CC2)NC(=O)[C@@H]2C[C@@H](Oc3nccc4c5c(ccc34)OC(F)(F)O5)CN2C(=O)[C@@H](NC(=O)O[C@H](C)C(F)(F)F)[C@H](C)C1 [Compound 5270, (R)-1,1,1-trifluoropropan-2-yl ((2R,6S,7R,9R,13aS,14aR,16aS,Z)-14a-((cyclopropylsulfonyl)carbamoyl)-2((2,2-difluoro-[1,3]dioxolo[4,5-f]isoquinolin-6-yl)oxy)-7,9-dimethyl-5,16-dioxo-1,2,3,5,6,7,8,9,10,11,13a,14,14a,15,16,16a-hexadecahydrocyclopropa[e]pyrrolo[1,2-a][1,4]diazacyclopentadecin-6-yl)carbamate]
EC50 [1]: < 5.46 nM | EC50 [2]: < 5.46 nM

C[C@H]1CC/C=C\[C@@H]2C[C@@]2(C(=O)NS(=O)(=O)C2CC2)NC(=O)[C@@H]2C[C@@H](Oc3nccc4c5c(ccc34)OC(F)(F)O5)CN2C(=O)[C@@H](NC(=O)OCC2(C)CC2)[C@H](C)C1 [Compound 5271, (1-methylcyclopropyl)methyl ((2R,6S,7R,9S,13aS,14aR,16aS,Z)-14a-((cyclopropylsulfonyl)carbamoyl)-2-((2,2-difluoro-[1,3]dioxolo[4,5-f]isoquinolin-6-yl)oxy)-7,9-dimethyl-5,16-dioxo-1,2,3,5,6,7,8,9,10,11,13a,14,14a,15,16,16a-hexadecahydrocyclopropa[e]pyrrolo[1,2-a][1,4]diazacyclopentadecin-6-yl)carbamate]
EC50 [1]: 4.82 to 103 nM | EC50 [2]: 4.82 to 103 nM

C[C@@H]1CC/C=C\[C@@H]2C[C@@]2(C(=O)NS(=O)(=O)C2CC2)NC(=O)[C@@H]2C[C@@H](Oc3nccc4c5c(ccc34)OC(F)(F)O5)CN2C(=O)[C@@H](NC(=O)OCC2(C)CC2)[C@H](C)C1 [Compound 5272, (1-methylcyclopropyl)methyl ((2R,6S,7R,9R,13aS,14aR,16aS,Z)-14a-((cyclopropylsulfonyl)carbamoyl)-2-((2,2-difluoro-[1,3]dioxolo[4,5-f]isoquinolin-6-yl)oxy)-7,9-dimethyl-5,16-dioxo-1,2,3,5,6,7,8,9,10,11,13a,14,14a,15,16,16a-hexadecahydrocyclopropa[e]pyrrolo[1,2-a][1,4]diazacyclopentadecin-6-yl)carbamate]
EC50 [1]: < 5.46 nM | EC50 [2]: < 5.46 nM

C[C@H]1CC/C=C\[C@@H]2C[C@@]2(C(=O)NS(=O)(=O)C2CC2)NC(=O)[C@@H]2C[C@@H](Oc3nccc4c5c(ccc34)N(C)CCO5)CN2C(=O)[C@@H](NC(=O)OC(C)(C)C)[C@H](C)C1 [Compound 5275, tert-butyl ((2R,6S,7R,9S,13aS,14aR,16aS,Z)-14a-((cyclopropylsulfonyl)carbamoyl)-7,9-dimethyl-2-((4-methyl-3,4-dihydro-2H-[1,4]oxazino[2,3-f]isoquinolin-7-yl)oxy)-5,16-dioxo-1,2,3,5,6,7,8,9,10,11,13a,14,14a,15,16,16a-hexadecahydrocyclopropa[e]pyrrolo[1,2-a][1,4]diazacyclopentadecin-6-yl)carbamate]
EC50 [1]: < 5.46 nM | EC50 [2]: < 5.46 nM

C[C@@H]1CC/C=C\[C@@H]2C[C@@]2(C(=O)NS(=O)(=O)C2CC2)NC(=O)[C@@H]2C[C@@H](Oc3nccc4c5c(ccc34)N(C)CCO5)CN2C(=O)[C@@H](NC(=O)OC(C)(C)C)[C@H](C)C1 [Compound 5276, tert-butyl ((2R,6S,7R,9R,13aS,14aR,16aS,Z)-14a-((cyclopropylsulfonyl)carbamoyl)-7,9-dimethyl-2-((4-methyl-3,4-dihydro-2H-[1,4]oxazino[2,3-f]isoquinolin-7-yl)oxy)-5,16-dioxo-1,2,3,5,6,7,8,9,10,11,13a,14,14a,15,16,16a-hexadecahydrocyclopropa[e]pyrrolo[1,2-a][1,4]diazacyclopentadecin-6-yl)carbamate]
EC50 [1]: < 5.46 nM | EC50 [2]: < 5.46 nM

From patent publication US9499550B2 (BRISTOL-MYERS SQUIBB COMPANY, priority 2012, dated 2016)
